Results: PubChem BioAssay (NCI)
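96-well plates; 48 h exposure; 5 concentrations. Endpoints by linear interpolation between flanking doses. Not reached: highest tested concentration assigned. Here, GI50 denotes the concentration required for 50% inhibition of growth. At the TGI there is no net growth.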

Columns and labels:
Assay in all cases: DTP human tumour cell line panel, 48 h
MDA-MB-468 breast = system: MDA-MB-468 breast
786-0 renal = system: 786-0 renal
A498 renal = system: A498 renal
A549 NSCLC = system: A549 NSCLC
ACHN renal = system: ACHN renal
BT-549 breast = system: BT-549 breast
CAKI-1 renal = system: CAKI-1 renal
CCRF-CEM leukemia = system: CCRF-CEM leukemia
COLO 205 colon = system: COLO 205 colon
DU-145 prostate = system: DU-145 prostate
EKVX NSCLC = system: EKVX NSCLC
HCC-2998 colon = system: HCC-2998 colon
HCT-116 colon = system: HCT-116 colon
HCT-15 colon = system: HCT-15 colon
HL-60(TB) leukemia = system: HL-60(TB) leukemia
HOP-62 NSCLC = system: HOP-62 NSCLC
HOP-92 NSCLC = system: HOP-92 NSCLC
HS 578T breast = system: HS 578T breast
HT29 colon = system: HT29 colon
IGROV1 ovarian = system: IGROV1 ovarian
K-562 leukemia = system: K-562 leukemia
KM12 colon = system: KM12 colon
LOX IMVI melanoma = system: LOX IMVI melanoma
M14 melanoma = system: M14 melanoma
MALME-3M melanoma = system: MALME-3M melanoma
MCF7 breast = system: MCF7 breast
MDA-MB-231 breast = system: MDA-MB-231 breast
MDA-MB-435 = system: MDA-MB-435
MOLT-4 leukemia = system: MOLT-4 leukemia
NCI-H226 lung = system: NCI-H226 lung
NCI-H23 lung = system: NCI-H23 lung
NCI-H460 lung = system: NCI-H460 lung
NCI-H522 lung = system: NCI-H522 lung
NCI/ADR-RES ovarian = system: NCI/ADR-RES ovarian
OVCAR-3 ovarian = system: OVCAR-3 ovarian
OVCAR-4 ovarian = system: OVCAR-4 ovarian
OVCAR-5 ovarian = system: OVCAR-5 ovarian
OVCAR-8 ovarian = system: OVCAR-8 ovarian
PC-3 prostate = system: PC-3 prostate
RPMI-8226 leukemia = system: RPMI-8226 leukemia
RXF 393 renal = system: RXF 393 renal
SF-268 CNS = system: SF-268 CNS
SF-295 CNS = system: SF-295 CNS
SF-539 CNS = system: SF-539 CNS
SK-MEL-2 melanoma = system: SK-MEL-2 melanoma
SK-MEL-28 melanoma = system: SK-MEL-28 melanoma
SK-MEL-5 melanoma = system: SK-MEL-5 melanoma
SK-OV-3 ovarian = system: SK-OV-3 ovarian
SN12C renal = system: SN12C renal
SNB-19 CNS = system: SNB-19 CNS
SNB-75 CNS = system: SNB-75 CNS
SW-620 colon = system: SW-620 colon
T-47D breast = system: T-47D breast
TK-10 renal = system: TK-10 renal
U251 CNS = system: U251 CNS
UACC-257 melanoma = system: UACC-257 melanoma
UACC-62 melanoma = system: UACC-62 melanoma
UO-31 renal = system: UO-31 renal

CC(C)(C)N1CCC1C(N)=O (stereo not drawn)
GI50 (MDA-MB-468 breast): > 100000 nM
TGI (MDA-MB-468 breast): > 100000 nM

CCCCn1c2cc(OCc3cn(-c4ccc(Cl)cc4)nn3)ccc2c2ccnc(C)c21
GI50 (MDA-MB-468 breast): 5230 nM
TGI (MDA-MB-468 breast): > 33300 nM

C(=N\Nc1ccccn1)/c1ccccn1
GI50 (MDA-MB-468 breast): 237 nM
TGI (MDA-MB-468 breast): 748 nM

COCCn1cc(-c2csc(-c3c[nH]c4ccccc34)n2)c2cccnc21
GI50 (MDA-MB-468 breast): 974 nM
TGI (MDA-MB-468 breast): 6680 nM

CCN(Cc1cccc(OC)c1)c1ccc(CO)c(Cl)c1
GI50 (MDA-MB-468 breast): 17.4 nM
TGI (MDA-MB-468 breast): 45.6 nM

C[C@]12CCC3[C@@H](C[C@@H]4SC(Nc5ccccc5)=N[C@@]45CC(=O)CC[C@]35C)[C@@H]1CCC2=O (stereo partly drawn)
GI50 (MDA-MB-468 breast): 3590 nM
TGI (MDA-MB-468 breast): 14600 nM

N#Cc1c(C(=O)c2ccccc2)cnn1-c1ccccc1
GI50 (MDA-MB-468 breast): > 25000 nM
TGI (MDA-MB-468 breast): > 25000 nM

Cc1ccc(C(=O)Nc2ccc(CN3CCN(C)CC3)c(C(F)(F)F)c2)cc1C#Cc1cnc(N)cc1C#N
GI50 (MDA-MB-468 breast): 399 nM
TGI (MDA-MB-468 breast): 1230 nM

Cc1c(C#N)cccc1-c1cc(-c2cn(Cc3cccc(C(C)(C)O)n3)nn2)nc(N)n1
GI50 (MDA-MB-468 breast): 7580 nM
TGI (MDA-MB-468 breast): 55600 nM

Cc1ccc(C(CN(C)C)C(=O)c2ccccc2)cc1 (stereo not drawn)
GI50 (MDA-MB-468 breast): 1320 nM
TGI (MDA-MB-468 breast): 3610 nM

Oc1ccc(/C=N\Nc2ccccn2)c(O)c1
GI50 (MDA-MB-468 breast): 2430 nM
TGI (MDA-MB-468 breast): 8560 nM

CCOc1ccccc1NC(=O)N/C(N)=N/c1nc2ccccc2s1
GI50 (786-0 renal): 29.6 nM
TGI (786-0 renal): 13300 nM
GI50 (A498 renal): 22100 nM
TGI (A498 renal): 44600 nM
GI50 (A549 NSCLC): 53.2 nM
TGI (A549 NSCLC): > 53100 nM
GI50 (ACHN renal): < 15.2 nM
TGI (ACHN renal): 22700 nM
GI50 (BT-549 breast): 24.6 nM
TGI (BT-549 breast): 126 nM
GI50 (CAKI-1 renal): < 14.1 nM
TGI (CAKI-1 renal): > 49000 nM
GI50 (CCRF-CEM leukemia): 28.9 nM
TGI (CCRF-CEM leukemia): > 32500 nM
GI50 (COLO 205 colon): 30.1 nM
TGI (COLO 205 colon): 106 nM
GI50 (DU-145 prostate): 28.7 nM
TGI (DU-145 prostate): 11900 nM
GI50 (EKVX NSCLC): 45.8 nM
TGI (EKVX NSCLC): 35000 nM
GI50 (HCC-2998 colon): 24.2 nM
TGI (HCC-2998 colon): 10900 nM
GI50 (HCT-116 colon): < 15.7 nM
TGI (HCT-116 colon): 310 nM
GI50 (HCT-15 colon): < 16.8 nM
TGI (HCT-15 colon): 12600 nM
GI50 (HL-60(TB) leukemia): 17.7 nM
TGI (HL-60(TB) leukemia): 59.6 nM
GI50 (HOP-62 NSCLC): < 20 nM
TGI (HOP-62 NSCLC): 20000 nM
GI50 (HOP-92 NSCLC): 6330 nM
TGI (HOP-92 NSCLC): > 58700 nM
GI50 (HS 578T breast): < 10.7 nM
TGI (HS 578T breast): > 78600 nM
GI50 (HT29 colon): 21 nM
TGI (HT29 colon): 67.3 nM
GI50 (IGROV1 ovarian): 27.4 nM
TGI (IGROV1 ovarian): 30100 nM
GI50 (K-562 leukemia): < 10 nM
TGI (K-562 leukemia): > 35600 nM
GI50 (KM12 colon): < 13.8 nM
TGI (KM12 colon): > 45800 nM
GI50 (LOX IMVI melanoma): < 14.8 nM
TGI (LOX IMVI melanoma): 15100 nM
GI50 (M14 melanoma): < 14 nM
TGI (M14 melanoma): 23200 nM
GI50 (MALME-3M melanoma): < 18.5 nM
TGI (MALME-3M melanoma): 45100 nM
GI50 (MCF7 breast): 26.5 nM
TGI (MCF7 breast): 23300 nM
GI50 (MDA-MB-231 breast): < 16.2 nM
TGI (MDA-MB-231 breast): 744 nM
GI50 (MDA-MB-435): < 10 nM
TGI (MDA-MB-435): 14.6 nM
GI50 (MDA-MB-468 breast): 23.3 nM
TGI (MDA-MB-468 breast): 61.5 nM
GI50 (MOLT-4 leukemia): 38.8 nM
TGI (MOLT-4 leukemia): > 33500 nM
GI50 (NCI-H226 lung): 43.5 nM
TGI (NCI-H226 lung): 1480 nM
GI50 (NCI-H23 lung): < 18.6 nM
TGI (NCI-H23 lung): 23000 nM
GI50 (NCI-H460 lung): 26.4 nM
TGI (NCI-H460 lung): 10900 nM
GI50 (NCI-H522 lung): < 10 nM
TGI (NCI-H522 lung): 20.1 nM
GI50 (NCI/ADR-RES ovarian): < 10 nM
TGI (NCI/ADR-RES ovarian): 29.8 nM
GI50 (OVCAR-3 ovarian): < 10 nM
TGI (OVCAR-3 ovarian): 11400 nM
GI50 (OVCAR-4 ovarian): 11100 nM
TGI (OVCAR-4 ovarian): 63600 nM
GI50 (OVCAR-5 ovarian): 37.8 nM
TGI (OVCAR-5 ovarian): > 41000 nM
GI50 (OVCAR-8 ovarian): < 17.2 nM
TGI (OVCAR-8 ovarian): 26900 nM
GI50 (PC-3 prostate): 25.2 nM
TGI (PC-3 prostate): > 74600 nM
GI50 (RPMI-8226 leukemia): 37.1 nM
TGI (RPMI-8226 leukemia): > 39700 nM
GI50 (RXF 393 renal): < 12.9 nM
TGI (RXF 393 renal): 40000 nM
GI50 (SF-268 CNS): 84.6 nM
TGI (SF-268 CNS): > 100000 nM
GI50 (SF-295 CNS): < 16.4 nM
TGI (SF-295 CNS): 13800 nM
GI50 (SF-539 CNS): < 11.9 nM
TGI (SF-539 CNS): < 22.5 nM
GI50 (SK-MEL-2 melanoma): 25.9 nM
TGI (SK-MEL-2 melanoma): 42500 nM
GI50 (SK-MEL-28 melanoma): 14500 nM
TGI (SK-MEL-28 melanoma): > 100000 nM
GI50 (SK-MEL-5 melanoma): < 14.1 nM
TGI (SK-MEL-5 melanoma): 34.1 nM
GI50 (SK-OV-3 ovarian): 49.1 nM
TGI (SK-OV-3 ovarian): > 77400 nM
GI50 (SN12C renal): 27.2 nM
TGI (SN12C renal): 13800 nM
GI50 (SNB-19 CNS): 31 nM
TGI (SNB-19 CNS): 53800 nM
GI50 (SNB-75 CNS): < 10 nM
TGI (SNB-75 CNS): > 69100 nM
GI50 (SW-620 colon): < 17.5 nM
TGI (SW-620 colon): > 42300 nM
GI50 (T-47D breast): 13900 nM
TGI (T-47D breast): > 100000 nM
GI50 (TK-10 renal): > 39400 nM
TGI (TK-10 renal): > 100000 nM
GI50 (U251 CNS): < 16.4 nM
TGI (U251 CNS): 13700 nM
GI50 (UACC-257 melanoma): 32000 nM
TGI (UACC-257 melanoma): > 100000 nM
GI50 (UACC-62 melanoma): < 10 nM
TGI (UACC-62 melanoma): > 55600 nM
GI50 (UO-31 renal): < 30.8 nM
TGI (UO-31 renal): > 88600 nM
